The subject of assay [1] is BALB/c mice immunized with human quadrivalent influenza vaccine. It is filed as in vivo.
For assay [2] the test system is unchanged. It is filed as in vivo. Particulars: 16 days post-immunization; flow cytometry; vaccine plus cardiolipin compared to vehicle or vaccine only; FIG. 3A-3H. (A flow cytometer gives signals particle by particle.)

Regarding `CCCCC/C=C\C/C=C\CCCCCCCC(=O)OC[C@H](COP(=O)([O-])OCC(O)COP(=O)([O-])OC[C@@H](COC(=O)CCCCCCC/C=C\C/C=C\CCCCC)OC(=O)CCCCCCC/C=C\C/C=C\CCCCC)OC(=O)CCCCCCC/C=C\C/C=C\CCCCC.[Na+].[Na+]` (stereo partly shown) [cardiolipin (C18:2)4], the “accelerated seroconversion (time post-immunization)” value in assay [1] (100 μg/kg cardiolipin (C18:2)4 mixed with […] TETRA vaccine (1 microgram HA), intramuscular and subcutaneous, cardiolipin booster at day 10, compared to vehicle or vaccine only) is on record as 7 days. For the same compound, the “vaccine antigen-specific antibodies in sera” value in assay [1] (13 days post-immunization, 100 μg/kg cardiolipin (C18:2)4 with vaccine, compared to vehicle or vaccine only, FIG. 2A-2B (IgM, IgG)) was “significantly higher”. Further, the “subclasses of virus-specific antibodies elicited (Th1/Th2 response)” value in assay [1] (serum IgG, IgG1, IgG2a, IgG2b by ELISA, FIG. 2C-2F) was “elicited both IgG2a and IgG1 subclasses of virus-specific antibodies, indicating a balanced Th1/Th2 response”. Besides, the “cells producing the examined cytokines (IFN-γ, IL-4 and IL-17A) in inguinal lymph nodes” value in assay [2] is “significant increase”.

Source of the values: patent US11786592B2, “Compositions of cardiolipin adjuvants and methods of use thereof” (The University of Hong Kong, priority 2021, dated 2023).
